Test results reported in patent US20170127675A1, “COMPOSITIONS AND METHODS FOR CONTROLLING INSECT POPULATIONS” (OLFACTOR LABORATORIES, INC., priority 2014, published 2017).
Structures can show the parent of a compound that is named as a salt.

System: mosquitoes
Assay: Attractive toxic sugar assay
Type: in vivo
Conditions: after three days, dead / total mosquitoes
Experimental: Experiments were carried out to examine the lethality of compounds of the present invention using an attractive toxic sugar assay. These experiments were carried out in 6 groups according to Table 3. […] The experimental room was conditioned with 75% humidity or higher. Experimental cages were prepared by adding paper towels to the cage bottoms. Cages of mosquitoes were collected (about 25 males and about 25 females per cage), one cage for each sugar bait being tested with an extra cage to use as a sucrose-only control. […] Feeding cups were prepared with 10 ml of experimental sugar bait to a cup. In some experiments, blue food coloring was added to verify sugar consumption in the frass. Bait cups were mixed by gentle swirling and wicks were added through the top. Control bait cups received about 10 ml of prepared 10% sucrose solution (except where otherwise indicated). Heat, humidity as well as humidifier water content were checked each day. Cages were examined daily for dead mosquitoes. The number of dead mosquitoes per gender was recorded each day. Frass content was examined daily and compared with that of sucrose control. After three days, final observations were made and live mosquitoes were removed from each experimental cage and placed into cups for examination under the dissecting scope to determine whether or not female mosquitoes had fed. Once feeding females had been determined for populations from each cage, cups were frozen and discarded. Dead mosquitoes in each cage were counted and the sex of each determined. The relative frass content per cage was compared to that of the sucrose control cage. […] Percent (%) lethality was calculated for each treatment group by dividing the total (male and female) number of dead mosquitoes by the total number of mosquitoes for each.

[1] = sugar conc. 0.10%, about 25 male and 25 female mosquitoes per cage

Compound	% Lethality [1] [%]	% Lethality (sugar conc. 0.50%) [%]
O.O.O.O.O.OC[C@H]1O[C@H](OC[C@H]2O[C@H](O[C@]3(CO)O[C@H](CO)[C@@H](O)[C@@H]3O)[C@H](O)[C@@H](O)[C@@H]2O)[C@H](O)[C@@H](O)[C@H]1O [D-(+)-raffinose pentahydrate]	38.8	–
CO[C@@H]1O[C@H](CO)[C@H](O)[C@H](O)[C@H]1O [methyl-beta-D-galactopyranoside]	65.9	43
OC[C@H]1O[C@H](OCC2O[C@@H](O)[C@H](O)[C@@H](O)[C@@H]2O)[C@H](O)[C@@H](O)[C@H]1O (stereo partly drawn) [melibiose]	64.4	–
n-acetyl allolactosamine	44	–
O=C(CO)[C@@H](O[C@H]1O[C@H](CO)[C@@H](O)[C@H](O)[C@H]1O)[C@H](O)[C@H](O)CO [D-(+)-turanose]	66	29
CC1(C)[C@@H](O[C@H]2O[C@H](C(=O)O)[C@@H](O)[C@H](O)[C@H]2O[C@@H]2O[C@H](C(=O)O)[C@@H](O)[C@H](O)[C@H]2O)CC[C@]2(C)[C@H]3C(=O)C=C4[C@@H]5C[C@@](C)(C(=O)O)CC[C@]5(C)CC[C@@]4(C)[C@]3(C)CC[C@@H]12 [glycyrrhizic acid ammonium salt]	68.3	–
sucrose octasulfate aluminum complex	39.6	–
C[C@@H]1O[C@@H](OC[C@H]2O[C@@H](Oc3c(-c4ccc(O)c(O)c4)oc4cc(O)cc(O)c4c3=O)[C@H](O)[C@@H](O)[C@@H]2O)[C@H](O)[C@H](O)[C@H]1O [rutin hydrate]	58	45
OC[C@H]1O[C@@H](O[C@H]2O[C@H](CO)[C@@H](O)[C@H](O)[C@H]2O)[C@H](O)[C@@H](O)[C@@H]1O [alpha,beta-trehalose]	56.2	–
